Results taken from the supplement of paper PMC10307832.

Key:
Assay in all cases: relative viability (nuclei count vs DMSO), 5 days (fraction); higher = more cells survive
VX-11e + Navitoclax = compound: CC1=CN=C(N=C1C2=CNC(=C2)C(=O)N[C@H](CO)C3=CC(=CC=C3)Cl)NC4=C(C=C(C=C4)F)Cl [VX-11e] + CC1(C)CCC(c2ccc(Cl)cc2)=C(CN2CCN(c3ccc(C(=O)NS(=O)(=O)c4ccc(N[C@H](CCN5CCOCC5)CSc5ccccc5)c(S(=O)(=O)C(F)(F)F)c4)cc3)CC2)C1 [Navitoclax] (partner 0.5 µM)
Outline: (§1)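 Nuclei were stained with Hoechst during a one-step fixation (final 0.05% Triton X-100, 1% formaldehyde, 1 ug/ml Hoechst) carried out 5 days after dosing, then counted on 4× images. The cells, lung cancer lines in 1536-well plates, had been dosed by pin tool the day after seeding with one drug alone or a fixed anchor-drug dose plus five library-drug doses (not always all listed) in √10 steps. Relative viability is the nuclei count in treated wells divided by that in vehicle wells, and each value is the median of duplicate plates.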

VX-11e + Crizotinib = compound: CC1=CN=C(N=C1C2=CNC(=C2)C(=O)N[C@H](CO)C3=CC(=CC=C3)Cl)NC4=C(C=C(C=C4)F)Cl [VX-11e] + C[C@@H](Oc1cc(-c2cnn(C3CCNCC3)c2)cnc1N)c1c(Cl)ccc(F)c1Cl [Crizotinib] (partner 1 µM)
Outline: as §1

VX-11e + Tozasertib = compound: CC1=CN=C(N=C1C2=CNC(=C2)C(=O)N[C@H](CO)C3=CC(=CC=C3)Cl)NC4=C(C=C(C=C4)F)Cl [VX-11e] + Cc1cc(Nc2cc(N3CCN(C)CC3)nc(Sc3ccc(NC(=O)C4CC4)cc3)n2)n[nH]1 [Tozasertib] (partner 0.1 µM)
Outline: as §1

VX-11e + Vorinostat = compound: CC1=CN=C(N=C1C2=CNC(=C2)C(=O)N[C@H](CO)C3=CC(=CC=C3)Cl)NC4=C(C=C(C=C4)F)Cl [VX-11e] + O=C(CCCCCCC(=O)Nc1ccccc1)NO [Vorinostat] (partner 1 µM)
Outline: as §1

Row | Cell Line | relative viability (VX-11e + Navitoclax; first compound 0.04 µM) | relative viability (VX-11e + Navitoclax; first compound 0.1265 µM) | relative viability (VX-11e + Navitoclax; first compound 0.4 µM) | relative viability (VX-11e + Navitoclax; first compound 1.265 µM) | relative viability (VX-11e + Navitoclax; first compound 4 µM) | relative viability (VX-11e + Crizotinib; first compound 0.04 µM) | relative viability (VX-11e + Crizotinib; first compound 0.1265 µM) | relative viability (VX-11e + Crizotinib; first compound 0.4 µM) | relative viability (VX-11e + Crizotinib; first compound 1.265 µM) | relative viability (VX-11e + Crizotinib; first compound 4 µM) | relative viability (VX-11e + Tozasertib; first compound 0.04 µM) | relative viability (VX-11e + Tozasertib; first compound 0.1265 µM) | relative viability (VX-11e + Tozasertib; first compound 0.4 µM) | relative viability (VX-11e + Tozasertib; first compound 1.265 µM) | relative viability (VX-11e + Tozasertib; first compound 4 µM) | relative viability (VX-11e + Vorinostat; first compound 0.04 µM) | relative viability (VX-11e + Vorinostat; first compound 0.1265 µM) | relative viability (VX-11e + Vorinostat; first compound 1.265 µM) | relative viability (VX-11e + Vorinostat; first compound 4 µM) | relative viability (VX-11e + Vorinostat; first compound 0.4 µM)
1 | NCI-H1666 | 0.987 | 1.1 | 0.848 | 0.51 | 0.368 | 1.03 | 0.818 | 0.753 | 0.752 | 0.456 | 0.561 | 0.584 | 0.49 | 0.52 | 0.388 | 1.08 | 0.953 | 0.992 | 0.798 | 
2 | EKVX | 0.847 | 0.935 | 0.926 | 0.831 | 0.601 | 1.07 | 0.944 | 0.879 | 0.764 | 0.617 | 0.385 | 0.398 | 0.342 | 0.257 | 0.163 | 0.751 | 0.687 | 0.728 | 0.382 | 0.718
3 | NCI-H1355 | 0.92 | 0.891 | 0.945 | 0.695 | 0.333 | 1.1 | 0.993 | 1.09 | 0.875 | 0.479 | 0.516 | 0.544 | 0.457 | 0.346 | 0.282 | 0.472 | 0.617 | 0.52 | 0.345 | 0.591
4 | SK-LU-1 | 1.06 | 0.817 | 0.508 | 0.634 | 0.168 | 0.987 | 0.761 | 0.789 | 0.735 | 0.407 | 0.348 | 0.298 |  | 0.338 | 0.194 | 0.827 | 0.771 | 0.545 | 0.298 | 0.766
5 | NCI-H727 | 0.395 | 0.332 | 0.283 | 0.167 | 0.115 | 0.722 | 0.847 | 0.712 | 0.419 | 0.243 | 0.66 | 0.48 | 0.45 | 0.429 | 0.325 | 0.997 | 1.08 | 1.12 | 0.787 | 1.28
6 | NCI-H2126 |  | 0.861 | 0.877 | 0.785 | 0.638 |  | 1.03 | 0.987 | 1.02 | 0.901 | 0.828 | 0.78 |  | 0.666 | 0.6 | 0.512 | 0.686 | 0.474 | 0.52 | 0.352
7 | NCI-H596 | 1.12 | 0.876 | 0.895 | 0.951 | 0.586 | 0.891 | 1.05 | 1.09 | 0.939 | 0.722 | 0.912 | 0.815 | 0.845 | 0.758 | 0.446 | 0.472 | 0.635 | 0.387 | 0.354 | 0.597
8 | PC-14 | 1.05 | 1.04 | 1.09 | 0.978 | 0.727 | 0.993 | 0.916 | 0.861 | 0.878 | 0.506 | 0.66 | 0.469 | 0.395 | 0.331 | 0.278 | 0.747 | 0.692 | 0.58 | 0.302 | 0.355
9 | NCI-H1915 | 0.826 | 0.761 | 0.787 | 0.682 | 0.546 | 0.945 | 0.82 | 0.919 | 0.788 | 0.548 | 0.42 | 0.392 | 0.401 | 0.366 | 0.295 | 0.469 | 0.493 | 0.607 | 0.43 | 0.526
10 | ChaGo-K-1 | 0.616 |  | 1.07 | 0.781 | 0.787 | 1.19 |  | 1.23 | 1.01 | 1.12 | 0.219 | 0.233 | 0.234 | 0.188 | 0.186 | 0.754 | 0.699 | 0.656 | 0.636 | 0.717
11 | NCI-H1437 | 1.11 | 1.05 | 1.07 | 0.815 | 0.52 | 1.05 | 0.957 | 0.853 | 0.974 | 0.487 | 0.421 | 0.379 | 0.345 | 0.335 | 0.159 | 0.82 | 0.864 | 0.739 | 0.458 | 0.82
12 | NCI-H322M | 1.24 |  | 1.23 | 1.06 | 0.672 | 1.08 |  | 0.942 | 0.987 | 0.699 | 0.444 | 0.444 | 0.352 | 0.453 | 0.343 | 0.763 | 0.813 | 0.736 | 0.64 | 1.13
13 | LOU-NH91 | 0.751 | 0.692 |  | 0.593 | 0.581 | 0.706 | 0.71 |  | 0.773 | 0.639 | 0.807 | 0.647 | 0.384 | 0.593 | 0.618 | 0.889 | 0.79 | 0.626 | 0.781 | 
14 | EPLC-272H | 1.09 | 1.02 | 1.01 | 0.82 | 0.668 | 0.711 | 0.877 | 0.85 | 0.676 | 0.627 | 0.224 | 0.262 |  | 0.193 | 0.205 | 0.311 | 0.381 | 0.23 | 0.275 | 0.477
